Measurements taken from PubChem BioAssay (NCI).
“And” between values parts separate entries of the source, which are not always exact repeats. Equal values may be shown once.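 Method: 48-hour compound exposure of cells in 96-well plates, five concentrations, linear interpolation of endpoints. GI50: concentration for 50% inhibition of growth. At the TGI there is no net growth.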

Assays:
Test in all cases: growth of human tumour cells (NCI), 48 h
[1] = tested on: MDA-MB-231 breast
[2] = tested on: UO-31 renal
[3] = tested on: ACHN renal
[4] = tested on: KM12 colon
[5] = tested on: UACC-257 melanoma
[6] = tested on: HCC-2998 colon
[7] = tested on: NCI/ADR-RES ovarian
[8] = tested on: HCT-116 colon
[9] = tested on: SNB-19 CNS
[10] = tested on: MOLT-4 leukemia

SMILES	GI50 [1]	TGI [1]	GI50 [2]	TGI [2]	GI50 [3]	TGI [3]	GI50 [4]	TGI [4]	GI50 [5]	TGI [5]	GI50 [6]	TGI [6]	GI50 [7]	TGI [7]	GI50 [8]	TGI [8]	GI50 [9]	TGI [9]	GI50 [10]	TGI [10]
COc1cccc(-c2nn(-c3ccccc3)cc2-c2ccnc(NCCNS(=O)(=O)c3ccc(C(F)(F)F)cc3)c2)c1	3.15 µM	> 100 µM	2.61 µM	> 100 µM	3.4 µM	> 100 µM	3.02 µM	16.7 µM	3.14 µM	15 µM	3.36 µM	24.8 µM	2.79 µM	14.4 µM	3.27 µM	15.8 µM	4.62 µM	> 100 µM	1.93 µM	5.48 µM
Cc1cc(N(CCOS(C)(=O)=O)CCOS(C)(=O)=O)ccc1C=Nc1ccc(-c2csc(-c3ccccc3)n2)c(Cl)c1		50.9 µM		29.7 µM		22.2 µM		27.2 µM		49.3 µM		15.8 µM		71.5 µM		40.5 µM		> 61.1 µM		38.7 µM
CCC1CCc2nc3sc(C(=O)Nc4ccccc4F)c(N)c3cc2C1 (stereo not drawn)	> 100 µM	> 100 µM	> 100 µM	> 100 µM	> 100 µM	> 100 µM	0.643 µM	> 100 µM	0.934 µM	> 100 µM	> 100 µM	> 100 µM	9.5 µM	> 100 µM	1.36 µM	> 100 µM	53.8 µM	> 100 µM	0.471 µM	> 100 µM
CN1CCN(C(=O)c2ccc(NC(=O)Nc3ccc(N(C)c4ccnc(Nc5ccc(CS(C)(=O)=O)cc5)n4)cc3)cc2)CC1	> 23.8 µM	> 25 µM	> 25 µM	> 25 µM	> 25 µM	> 25 µM	7.33 µM	> 25 µM	> 25 µM	> 25 µM	> 25 µM	> 25 µM	> 25 µM	> 25 µM	10.1 µM	> 25 µM	12.7 µM	> 25 µM	9.25 µM	> 25 µM
CC1(C)SC2C(C(=O)O)N=C(Cc3ccccc3)N2C1C(=O)O (stereo not drawn)		> 100 µM		39.5 µM		> 100 µM		> 100 µM		49.2 µM		56.9 µM		> 100 µM		> 100 µM		> 100 µM		> 100 µM
C[C@H](c1ccc(Cl)cc1N)N1C(=O)c2cc(I)ccc2N(CCCN2CCN(C)CC2)C(=O)[C@@H]1c1ccc(Cl)cc1	1.53 µM	2.97 µM	0.359 µM	1.9 µM	1.22 µM	2.5 µM	1.78 µM	3.24 µM	1.24 µM	2.69 µM	1.63 µM	3.03 µM	1.7 µM	3.6 µM	1.3 µM	2.63 µM	1.52 µM	2.9 µM	1.75 µM	3.59 µM
NC1=NC(=O)N2CC12 (stereo not drawn)	107 µM	244 µM	163 µM	> 100 µM and 605 µM	347 µM	> 100 µM and 1020 µM	436 µM	> 100 µM and 1070 µM	66.6 µM and 85 µM	> 100 µM and 245 µM	520 µM	> 100 µM and 1250 µM	168 µM	660 µM	73.9 µM	166 µM	516 µM	> 100 µM and 1120 µM	53.3 µM	> 100 µM and 185 µM
CS(=O)(=O)c1ccc(N/N=C/c2c(-c3ccc(S(C)(=O)=O)cc3)[nH]c3ccc(F)cc23)cc1	1.69 µM	> 50 µM	2.16 µM	> 50 µM	3.32 µM	> 50 µM	2.84 µM	> 50 µM	1.8 µM	20.2 µM	10.8 µM	> 50 µM	> 50 µM	> 50 µM	2.68 µM	> 50 µM	2.36 µM	> 50 µM	1.19 µM	> 50 µM
CNC(=O)c1ccc(Nc2ncc(C(F)(F)F)c(NCc3nccnc3N(C)S(C)(=O)=O)n2)cc1	2.55 µM and 3.12 µM and 2.6 µM	> 10 µM and 11.9 µM	1.03 µM and 1.94 µM and 2.14 µM	5.12 µM and 6.97 µM and 8.22 µM	1.67 µM and 1.77 µM and 1.5 µM	> 10 µM and 9.44 µM and 8.18 µM	0.383 µM and 0.309 µM and 0.307 µM	> 10 µM and 6.33 µM and 11.3 µM	4.66 µM and 3.75 µM	> 10 µM and 11.2 µM and 15.5 µM	3.68 µM and 2.54 µM and 3.86 µM	> 10 µM and 12.9 µM and 18 µM	8.27 µM and 8.53 µM	> 10 µM and 25.9 µM and 27.1 µM	2.08 µM and 2.4 µM and 1.71 µM	> 10 µM and 10.5 µM and 15.1 µM	3.21 µM and 3.17 µM and 3.31 µM	> 10 µM and 13.3 µM and 14.7 µM	3.25 µM and 2.64 µM and 3.09 µM	9.97 µM and 8.58 µM and 8.76 µM
C=C(C)C(=O)NC(N)=NC#N	161 µM	301 µM	134 µM	> 92.1 µM and 265 µM	68 µM	271 µM	147 µM	286 µM	69.4 µM	> 66.6 µM and 200 µM		261 µM	125 µM	> 83.8 µM and 267 µM	131 µM	257 µM		330 µM	21.5 µM and 46.7 µM	52.2 µM and 255 µM
